Measured values taken from patent publication EP1102770B1, “PARAMAGNETIC 3-,8-SUBSTITUTED DEUTEROPORPHYRIN DERIVATIVES, PHARMACEUTICAL PREPARATIONS CONTAINING SAME, METHOD FOR PRODUCING SAME AND THEIR USE IN MAGNETIC RESONANCE IMAGING OF NECROSIS AND INFARCTION” (SCHERING AKTIENGESELLSCHAFT, priority 1998, dated 2000).
Values joined by “and” are separate entries in the source; they are usually repeats but may differ in a detail not shown here. Identical values can stand only once.

What was measured:
[1] = Acute tolerance after single intravenous administration; format: in vivo, SPF-Mäuse (NMRI, Schering); conditions: mouse, single i.v., observation 7 days
Method: Es soll die Akute Verträglichkeit der Titelverbindung aus Beispiel 2d nach einmaliger intravenöser Gabe an der Maus untersucht werden.
Testmethode: Methode KM D1, 5. Auflage Tiermaterial: SPF-Mäuse (NMRI, Schering), 18-22 g, f:m = 50:50 Injektionsgeschwindigkeit: 2 ml/min. Kriterium der Wirksamkeit: exitus letalis Beobachtungszeitraum: 7 Tage

[2] = system: humanem Coloncarcinom (HT-29 P9); assay: Effect of light (ED50) on a tumour cell culture in the presence of porphyrins (phototoxicity); format: cell-based, human; conditions: concentration at which about half of the cells are no longer vital, 3 days xenon lamp (8,5 k Lux, UV filter), 2 x 30 min daily, count on day 4
Method: In Kulturflaschen von 25 ml Inhalt wird eine Zellkultur von humanem Coloncarcinom (HT-29 P9) 3 Tage bei 37°C vermehrt. Die Kulturen werden in zwei Grupen aufgeteilt und mit Lösungen der Prüfsubstanzen (50 mmol Porphyrineinheit (PE) /l, verdünnt mit fötalem Kälberserum) in zunehmender Menge (0; 1,5; 5; 8,5; 12; 15,5; 19 µmol PE/l) versetzt. Die Proben werden drei Tage lang mit einer Xenon-Lampe (8,5 k Lux, UV-Filter) bestrahlt. Die erste Gruppe erhält täglich 2 Bestrahlungen von je 30 Minuten Dauer im Abstand von 4 Stunden. Die restliche Zeit bleibt sie im Dunkeln im Brutschrank. Die zweite Gruppe wird nicht belichtet und bleibt die gesamte Zeit im Dunkeln im Brutschrank. Am vierten Tag wird das Zellwachstum durch Lebend-Tot-Färbung und Zählung mit der Zählkammer bestimmt.
In der Tabelle ist die Konzentration angegeben, bei der etwa die Hälfte der Zellen nicht mehr vital ist.

[3] = Determination of relaxivity R1; format: physicochemical; conditions: Wasser; 40°C; 0,47 Tesla; Minispec PC 20; n=3
Method: • Bestimmung der Relaxivity R1 [L·mmol^-1 ·s^-1] • Gerät: Minispec PC 20 • Messung bei 40°C; 0,47 Tesla • T1-Sequenz: 180°-TI-90°, Inversion Recovery

[4] = system: Tieren mit induziertem Myocardinfarkt; assay: MRI experiments in animals with induced myocardial infarction (necrosis-selective enhancement); format: in vivo, Ratten (Han.Wistar, Schering SPF); conditions: for Enhancement im nekrotischen Areal des Myocards: single i.v. dose 100 µmol Gd / kg KGW ca. 24 h after infarct induction, middle and late phase, 2.5 to ca. 24 h p. i., MRI 2 Tesla; for Abgrenzung des nekrotischen Areals im MRI-Experiment, Korrelation mit histologischer NBT ("Vital"-) Färbung: single i.v. dose 100 µmol Gd / kg KGW, heart prepared ca. 24 h p. i.
Method: Das nekroseselektive Enhancement wurde nach einmaliger intravenöser Applikation der Substanz aus Beispiel 1d an Tieren mit experimentell erzeugtem Myocardinfarkt im MRI Experiment untersucht. Die Induktion der Herzinfarkte erfolgte an narkotisierten (Domitor®/Dormicum®, i.m.) Ratten (Han.Wistar, Schering SPF, ca.300 g KGW) durch Okklusion der linken Coronararterie. Die Kontrastmittelapplikation (Dosis: 100 µmol Gd / kg KGW) erfolgte ca. 24 h nach der Infarktinduktion. Die Tiere wurden vor und bis 24 h nach KM-Applikation MR-tomographisch (SISCO SIS 85, 2 Tesla; SE-Sequenz, EKG-getriggert, TR: ca. 400 ms, TE: 10 ms, nt=4, ni=256, FOV: 7*7 cm, SD ≈ 3 mm, je 1 Schicht axial) untersucht. Ca. 24 h p. i. wurden die Tiere - im MRT - durch eine Narkotikaüberdosis getötet und zusätzlich ein MRI-Experiment am "frischtoten" Tier (--> keine Bewegungsartefakte) durchgeführt. Zur Verifizierung des Infarktes (Größe und Lage) wurde das Herz präpariert, in Scheiben geschnitten und anschließend eine NBT ("Vital-") Färbung durchgeführt. Vor KM-Applikation ist das infarzierte Areal nicht vom "normalen" Myocard zu unterscheiden, da sich beide Areale isointens darstellen (s. Abb.: 1a). Direkt nach der Substanzapplikation stellt sich der nicht-perfundierte Anteil des Myocards als hypointenses Areal dar (s. Abb.: 1b). Ab ca. 30 min p. i. steigt die Signalintensität im nicht-perfundierten Areal etwas an bzw. die Größe des abgegrenzten (Signalarmen) Areals nimmt ab (--> langsame Diffusion in die Nekrose).
Das nekroseselektive Enhancement wurde nach einmaliger intravenöser Applikation der Substanz aus Beispiel 2d an Tieren mit experimentell erzeugtem Myocardinfarkt im MRI Experiment untersucht. Die Induktion der Herzinfarkte erfolgte an narkotisierten (Domitor®/Dormicum®, i.m.) Ratten (Han.Wistar, Schering SPF, ca.300 g KGW) durch Okklusion der linken Coronararterie. Die Kontrastmittelapplikation (Dosis: 100 µmol Gd / kg KGW ) erfolgte ca. 24 h nach der Infarktinduktion. Die Tiere wurden vor und bis 3 h (kontinuierlich) sowie 24 h nach KM-Applikation MR-tomographisch (SISCO SIS 85, 2 Tesla; SE-Sequenz, EKG-getriggert, TR: ca. 400 ms, TE: 10 ms, nt=4, ni=256, FOV: 7*7 cm, SD ≈ 3 mm, je 1 Schicht axial) untersucht. Ca. 24 h p. i. wurden die Tiere - im MRT - durch eine Narkotikaüberdosis getötet und ein MRI-Experiment am "frischtoten" Tier (--> keine Bewegungsartefakte) durchgeführt. Zur Verifizierung des Infarktes (Größe und Lage) wurde das Herz präpariert, in Scheiben geschnitten und anschließend eine NBT (nitro blue tetrazolium chlorid) Färbung durchgeführt. Vor KM-Applikation ist das infarzierte Areal nicht vom "normalen" Myocard zu unterscheiden, da sich beide Areale isointens darstellen (s. Abb.: 2a). Direkt nach der Substanzapplikation stellt sich der nicht-perfundierte Anteil des Myocards als hypointenses Areal dar (s. Abb.: 2b). Ab ca. 30 min p. i. steigt die Signalintensität im nicht-perfundierten Areal etwas an bzw. die Größe des abgegrenzten (signalarmen) Areals nimmt ab (--> langsame Diffusion in die Nekrose).
Das nekroseselektive Enhancement wurde nach einmaliger intravenöser Applikation der Substanz aus Beispiel 4d an Tieren mit experimentell erzeugtem Myocardinfarkt im MRI Experiment untersucht. Die Induktion der Herzinfarkte erfolgte an narkotisierten (Domitor®/Dormicum®, i. m.) Ratten (Han. Wistar, Schering SPF, ca. 300 g KGW) durch Okklusion der linken Coronararterie. Die Kontrastmittelapplikation (Dosis: 100 µmol Gd / kg KGW) erfolgte ca. 24 h nach der Infarktinduktion. Die Tiere wurden vor und bis 3 h (kontinuierlich) sowie 24 h nach KM-Applikation MR-tomographisch (SISCO SIS 85, 2 Tesla; SE-Sequenz, EKG-getriggert, TR: ca. 400 ms, TE: 10 ms, nt=4, ni=256, FOV: 7*7 cm, SD ≈ 3 mm, je 1 Schicht axial) untersucht. Ca. 24 h p. i. wurden die Tiere - im MRT - durch eine Narkotikaüberdosis getötet und ein MRI-Experiment am "frischtoten" Tier (--> keine Bewegungsartefakte) durchgeführt. […]

[5] = In vivo comparison of blood kinetics with Dy-DTPA; conditions: for Blutkonzentrationen: rats, i.v. 82 µmol Gd/kg
[6] = plasma, rats n=3, i.v., 82 µmol Gd/kg (Verbindung 1), 103 µmol Dy/kg (Verbindung 2)

Substance: {mu-[{16, 16'-[Chloromangan(III)-7, 12-diethyl-3, 8, 13, 17-tetramethylporphyrin-2, 18-diyl]-bis[3, 6, 9-tris(carboxymethyl)-11, 14-dioxo-3, 6, 9, 12, 13-pentaazahexadecanoato]}(8-)]}-digadolinato(2-),-Dinatrium [Beispiel 2d]
- LD50 ([1]; 2 ml/min, value stated as to be expected): ≥ 5 mmol Gd/kg
- Lebern und Nieren aller überlebenden Tiere [1]: unauffällig
- ED50 [2]: > 1,25 mmol PE/l
- Relaxivity R1 [3]: 9.3 ± 0.1 L/mmol/s
- Enhancement im nekrotischen Areal des Myocards [4]: deutliches Enhancement
- Abgrenzung des nekrotischen Areals im MRI-Experiment, Korrelation mit histologischer NBT ("Vital"-) Färbung [4]: korreliert sehr gut

Substance: {mu-[{16,16'-[Chloroeisen(III)-7, 12-diethyl-3, 8, 13, 17-tetramethylporphyrin-2, 18-diyl]-bis[3, 6, 9-tris(carboxymethyl)-11,14-dioxo-3, 6, 9, 12, 13-pentaazahexadecanoato]}(8-)]}-digadolinato(2-) [Beispiel 1d]
- Vd ss [5, 6]: 0.08 ± 0.00 L/kg
- α-t½ [5, 6]: 3.56 ± 1.01 min
- β-t½ [5, 6]: 2.88 h and 2.8817 ± 0.646 h
- Blutkonzentrationen ([5]; after 120 min): 22-25 % der Dosis
- Blutkonzentrationen ([5]; after three minutes): 56-63 % der Dosis
- ED50 [2]: > 1,25 mmol PE/l
- Relaxivity R1 [3]: 11.9 ± 1.0 L/mmol/s
- Enhancement im nekrotischen Areal des Myocards [4]: deutliches Enhancement
- Abgrenzung des nekrotischen Areals im MRI-Experiment, Korrelation mit histologischer NBT ("Vital"-) Färbung [4]: korreliert sehr gut

Substance: {mu-[{16,16'-[Kupfer(II)-7, 12-diethyl-3, 8, 13, 17-tetramethylporphyrin-2,18-diyl]-bis[3, 6, 9-tris(carboxymethyl)-11, 14-dioxo-3, 6, 9, 12, 13-pentaazahexadecanoato]}(8-)]}-digadolinato(2-), Dinatrium [Beispiel 4d]
- ED50 [2]: > 1,25 mmol PE/l
- Relaxivity R1 [3]: 11.0 ± 0.1 L/mmol/s
- Enhancement im nekrotischen Areal des Myocards [4]: deutliches Enhancement
- Abgrenzung des nekrotischen Areals im MRI-Experiment, Korrelation mit histologischer NBT ("Vital"-) Färbung [4]: korreliert sehr gut

Substance: {mu-[{16, 16'-(7, 12-Diethyl-3, 8, 13, 17-tetramethylporphyrin-2, 18-diyl]-bis[3,6,9-tris(carboxymethyl)-11, 14-dioxo-3, 6, 9,12, 13-pentaazahexadecanoato]}(8-)]}-digadolinato(2-),-Dinatrium [IV, reference compound]
- ED50 [2]: 6,4·10^-3 mmol PE/l
- Relaxivity R1 [3]: 9.2 ± 0.1 L/mmol/s
